According to US20190343860A1 (Saint Louis University, priority 2016, published 2019):
Where two headings read alike, the source gives them in different places.

Legend:
mA1AR = molecular target: T1, mA1AR (Mus musculus, UniProt Q60612); test: Radioligand binding, membranes of HEK293 cells stably expressing mA1AR; conditions: species m; inhibition of binding at 10 μM
T1 construct: expressed in transfected cells
T1 sequence (Q60612 1-326): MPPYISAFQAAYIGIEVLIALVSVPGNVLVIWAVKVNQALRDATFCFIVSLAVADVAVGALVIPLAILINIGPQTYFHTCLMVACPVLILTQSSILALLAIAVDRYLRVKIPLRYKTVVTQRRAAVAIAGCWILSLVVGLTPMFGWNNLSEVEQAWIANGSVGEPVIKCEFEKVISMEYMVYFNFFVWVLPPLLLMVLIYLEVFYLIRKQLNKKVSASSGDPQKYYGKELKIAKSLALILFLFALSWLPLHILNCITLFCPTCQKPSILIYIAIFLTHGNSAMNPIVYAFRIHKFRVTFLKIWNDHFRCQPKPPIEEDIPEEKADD

mA2AAR = molecular target: T2, mA2AAR (Mus musculus, UniProt Q60613); test: Radioligand binding, membranes of HEK293 cells stably expressing mA2AAR; conditions: species m; inhibition of binding at 10 μM
T2 construct: expressed in transfected cells

hA3AR = molecular target: T3, hA3AR (Homo sapiens, UniProt P0DMS8); test: cAMP assay, inhibition of forskolin-stimulated cAMP in hA3AR-transfected CHO cells; format: cell-based; conditions: species h; percentage of maximal effect of 5′-N-ethylcarboxamidoadenosine 43, each at 10 μM
T3 construct: expressed in transfected cells
T3 sequence (P0DMS8 1-318): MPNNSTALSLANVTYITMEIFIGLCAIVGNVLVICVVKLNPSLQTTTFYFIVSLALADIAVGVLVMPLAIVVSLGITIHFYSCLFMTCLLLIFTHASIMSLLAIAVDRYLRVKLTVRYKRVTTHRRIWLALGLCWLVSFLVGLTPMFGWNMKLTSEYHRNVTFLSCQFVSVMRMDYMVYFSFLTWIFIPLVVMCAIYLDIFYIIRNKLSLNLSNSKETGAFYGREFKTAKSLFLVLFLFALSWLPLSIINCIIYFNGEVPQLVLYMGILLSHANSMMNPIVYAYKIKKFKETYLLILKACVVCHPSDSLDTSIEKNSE

hA1AR [1] = molecular target: T4, hA1AR (Homo sapiens, UniProt P30542); conditions: species h; inhibition of binding at 10 μM; tested in ref 26; cited from earlier work
T4 construct: expressed in transfected cells
T4 sequence (P30542 1-326): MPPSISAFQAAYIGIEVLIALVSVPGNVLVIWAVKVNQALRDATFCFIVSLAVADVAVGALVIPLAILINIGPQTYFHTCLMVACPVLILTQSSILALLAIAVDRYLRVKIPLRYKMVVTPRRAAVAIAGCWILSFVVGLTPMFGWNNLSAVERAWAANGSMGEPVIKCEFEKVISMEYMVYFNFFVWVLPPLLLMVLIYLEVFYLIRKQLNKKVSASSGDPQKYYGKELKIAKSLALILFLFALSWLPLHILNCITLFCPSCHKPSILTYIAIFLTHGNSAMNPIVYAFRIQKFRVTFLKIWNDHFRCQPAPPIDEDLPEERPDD

hA2AAR [2] = molecular target: T5, hA2AAR (Homo sapiens, UniProt P29274); conditions: species h; inhibition of binding at 10 μM; tested in ref 26; cited from earlier work
T5 construct: expressed in transfected cells

hA2AAR [3] = molecular target: T5, hA2AAR; test: Radioligand binding, membranes of HEK293 cells stably expressing hA2AAR; conditions: species h; inhibition of binding at 10 μM
mA3AR [4] = molecular target: T6, mA3AR (Mus musculus, UniProt Q61618); test: cAMP assay, inhibition of forskolin-stimulated cAMP in mAR-transfected HEK cells; format: cell-based; conditions: species m; percentage of maximal effect of 1a, from concentration-effect curves
T6 construct: expressed in transfected cells
T6 sequence (Q61618 1-319): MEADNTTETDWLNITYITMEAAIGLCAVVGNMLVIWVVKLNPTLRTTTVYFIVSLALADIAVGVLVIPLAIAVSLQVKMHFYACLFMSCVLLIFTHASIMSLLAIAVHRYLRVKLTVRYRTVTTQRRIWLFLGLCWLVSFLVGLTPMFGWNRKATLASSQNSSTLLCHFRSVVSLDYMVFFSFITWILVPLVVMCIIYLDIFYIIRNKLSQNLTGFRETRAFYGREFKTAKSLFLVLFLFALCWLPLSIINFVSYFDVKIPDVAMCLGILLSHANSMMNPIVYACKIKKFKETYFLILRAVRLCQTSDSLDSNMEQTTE

hA1AR [5] = molecular target: T4, hA1AR; test: Radioligand binding, membranes of CHO cells stably expressing hA1AR; conditions: species h; inhibition of binding at 10 μM
mA3AR [6] = molecular target: T6, mA3AR; test: Radioligand binding, membranes of HEK293 cells stably expressing mA3AR; conditions: species m; inhibition of binding at 10 μM
[7] = system: isolated mouse liver mitochondria; test: Mitochondrial membrane potential (ΔΨm), TMRM flow cytometry of isolated mitochondria; format: biochemical; conditions: n=1
Protocol: FIG. 12. MRS5980 reduces ADP-dependent dissipation of mitochondrial membrane potential (ΔΨm). ADP (1 mM) in the presence of Complex I and II substrates reduced the ΔΨm in isolated mouse liver mitochondrial (decreased TMRM signal). The degree of dissipation ΔΨm was lessened with MRS5980 (10 μM) treatment prior to adding ADP n=1, 10,000 mitochondria counted/sample.
FIG. 13. MRS5980 reduces calcium-dependent dissipation of mitochondrial ΔΨm. The addition of Ca^2+ (0.5-15 μM) to isolated mouse liver mitochondria reduced the mitochondria ΔΨm in (decreased TMRM signal). The mitochondrial ΔΨιη was sustained with MRS5980 (10 μM) treatment. n=1, 10,000 mitochondria counted/sample.
Mitochondrial membrane potential (ΔΨm). Mitochondria from mouse & rat liver were isolated for flow cytometry as previously described. Mitochondria (57 μg) were loaded with Mitotracker DeepRed FM (50 nM) & TMRM (100 nM). Mitochondria were then treated for 5 min with MRS5980 (10 μM) or vehicle then stimulated with ADP (1 mM) or Ca^2+ (0-15 μM) for 1 min. Mitochondria (10,000 counts) were detected using Mitotracker Deep Red FM (Abs/EM 644/665 nm) signal & the ΔΨm state determined by the dynamic median fluorescence signal of TMRM using a FACSCanto II (BD Biosciences).

[8] = system: PNSA mitochondria (saphenous nerve explants); test: ATP production in saphenous nerve explants after direct drug application; set-up: species or system rat; conditions: 1 μM
Protocol: FIG. 14. […] Mean±SEM, n=6/group *P=0.019 vs, t-test
ATP assays. Saphenous nerves were harvested from rats 25 days after the initiation of chemotherapy treatments, then minced & teased apart as previously described. Saphenous nerve explants were transferred to MiR05 respiratory buffer & baseline ATP samples were taken after 5 min or after 15 min treatment with MRS5980 or vehicle. ADP (1 mM), glutamate (5 mM), succinate (5 mM), […] (5 mM) were added for 5 min & samples were taken for ATP. ATP levels were measured by a flash luciferin-luciferase assay (Promega Enliten ATP Assay; Promega, Madison, Wis.) & normalized to citrate synthase activity (Sigma, St Louis, Mo.) in explants homogenates.

[9] = Oxaliplatin-induced mechano-hypersensitivity (paw withdrawal threshold, von Frey); format: in vivo, rat; conditions: oxaliplatin 5 days, 10 mg/kg cumulative dose
Source text: Mean±SEM, n=6/group, ANOVA with Bonferroni comparisons. *P<0.05 vs. day 0; #P<0.05 vs. vehicle &†P<0.05 vs. Oxaliplatin.

[10] = system: intraepidermal nerve fibers (IENFs); test: Incidence of intraepidermal nerve fibers (IENFs) in chemotherapy-treated rats; conditions: chemotherapeutic alone; p<0.05 vs. Naive

T2 sequence (Q60613 whole entry): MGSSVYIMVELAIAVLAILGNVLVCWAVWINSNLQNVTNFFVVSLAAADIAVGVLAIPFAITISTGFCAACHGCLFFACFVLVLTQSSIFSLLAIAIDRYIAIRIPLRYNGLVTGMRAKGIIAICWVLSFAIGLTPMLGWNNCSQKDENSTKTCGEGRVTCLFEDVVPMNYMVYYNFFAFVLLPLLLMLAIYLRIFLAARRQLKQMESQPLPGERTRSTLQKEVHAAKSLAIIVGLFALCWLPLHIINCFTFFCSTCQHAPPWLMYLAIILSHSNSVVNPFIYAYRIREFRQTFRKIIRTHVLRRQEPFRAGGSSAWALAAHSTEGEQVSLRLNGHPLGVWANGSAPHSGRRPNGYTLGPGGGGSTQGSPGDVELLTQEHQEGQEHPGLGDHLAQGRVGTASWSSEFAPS
T5 sequence (P29274 whole entry): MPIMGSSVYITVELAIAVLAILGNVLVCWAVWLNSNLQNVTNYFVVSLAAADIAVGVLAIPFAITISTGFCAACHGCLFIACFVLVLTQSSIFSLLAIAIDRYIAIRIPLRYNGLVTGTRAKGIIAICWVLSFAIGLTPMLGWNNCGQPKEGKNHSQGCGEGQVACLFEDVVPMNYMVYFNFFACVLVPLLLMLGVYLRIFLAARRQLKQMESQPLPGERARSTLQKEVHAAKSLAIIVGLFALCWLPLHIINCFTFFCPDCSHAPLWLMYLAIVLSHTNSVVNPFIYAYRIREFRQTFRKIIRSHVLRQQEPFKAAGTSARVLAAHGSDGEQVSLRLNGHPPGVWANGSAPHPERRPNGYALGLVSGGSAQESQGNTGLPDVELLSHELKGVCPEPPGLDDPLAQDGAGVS

CNC(=O)[C@@]12C[C@@H]1[C@@H](n1cnc3c(NCc4cccc(Cl)c4)nc(C#Cc4ccccc4)nc31)[C@H](O)[C@@H]2O [Cmpd 5]
% inhibition A1 (mA1AR): (50% ± 5% | % inhibition A2A (mA2AAR): (2% ± 1%) | % efficacy (hA3AR): 101 ± 5.9% | % inhibition A1 (hA1AR [1]): (20% ± 3%) | % inhibition A2A (hA2AAR [2]): (27% ± 3%)

CNC(=O)C12CC1C(n1cnc3c(NCc4cccc(Cl)c4)nc(C#Cc4ccc(S(=O)(=O)O)cc4)nc31)C(O)C2O (centres unmarked) [Cmpd 6]
% inhibition A2A (hA2AAR [3]): (23% ± 3%) | % inhibition A2A (mA2AAR): (14% ± 4%) | % efficacy (hA3AR): 98.6 ± 5.7% | % efficacy (mA3AR [4]): 95.7 ± 19.1%

CNC(=O)C12CC1C(n1cnc3c(NCc4cccc(Cl)c4)nc(C#Cc4cccc(S(=O)(=O)O)c4)nc31)C(O)C2O (centres unmarked) [Cmpd 7]
% inhibition A1 (hA1AR [5]): (16% ± 3%) | % inhibition A2A (hA2AAR [3]): (7% ± 6%) | % inhibition A1 (mA1AR): (15% ± 2%) | % inhibition A2A (mA2AAR): (1% ± 1%) | % efficacy (hA3AR): 98.2 ± 6.7% | % efficacy (mA3AR [4]): 89.3 ± 7.1%

CNc1nc(C#Cc2ccccc2)nc2c1ncn2[C@H]1[C@H](O)[C@H](O)[C@@H]2C[C@@H]21 [Cmpd 8]
% inhibition A2A (mA2AAR): (8% ± 3%) | % efficacy (hA3AR): 12.6 ± 4.0% | % inhibition A1 (hA1AR [1]): (18% ± 1%) | % inhibition A2A (hA2AAR [2]): (18% ± 3%)

CCNc1nc(C#Cc2ccccc2)nc2c1ncn2[C@H]1[C@H](O)[C@H](O)[C@@H]2C[C@@H]21 [Cmpd 9]
% inhibition A1 (mA1AR): (49% ± 6%) | % inhibition A2A (mA2AAR): (49% ± 2%) | % efficacy (hA3AR): 0.8 ± 5.2% | % inhibition A1 (hA1AR [1]): (36% ± 4%) | % inhibition A2A (hA2AAR [2]): (42% ± 4%)

CCNc1nc(C#Cc2ccccc2Cl)nc2c1ncn2[C@H]1[C@H](O)[C@H](O)[C@@H]2C[C@@H]21 [Cmpd 10]
% inhibition A1 (mA1AR): (47% ± 8%) | % inhibition A2A (mA2AAR): (11% ± 1%) | % inhibition A3 (mA3AR [6]): (50% ± 9%) | % efficacy (hA3AR): 7.0 ± 5.2% | % inhibition A1 (hA1AR [1]): (25% ± 11%) | % inhibition A2A (hA2AAR [2]): (17% ± 6%)

O[C@@H]1[C@H](O)[C@@H]2C[C@@H]2[C@H]1n1cnc2c(NCc3cccc(Cl)c3)nc(C#Cc3ccccc3)nc21 [Cmpd 11]
% efficacy (hA3AR): 13.8 ± 5.1% | % inhibition A1 (hA1AR [1]): (37% ± 4%)

O[C@@H]1[C@H](O)[C@@H]2C[C@@H]2[C@H]1n1cnc2c(NCc3cccc(Cl)c3)nc(C#Cc3cccc(Cl)c3)nc21 [Cmpd 12]
% efficacy (hA3AR): 4.5 ± 4.9%

O[C@@H]1[C@H](O)[C@@H]2C[C@@H]2[C@H]1n1cnc2c(NCc3cccc(Cl)c3)nc(C#Cc3ccc(-c4ccccc4)cc3)nc21 [Cmpd 13]
% inhibition A2A (mA2AAR): (0%) | % efficacy (hA3AR): 3.5 ± 3.2% | % inhibition A1 (hA1AR [1]): (48% ± 4%) | % inhibition A2A (hA2AAR [2]): (12% ± 7%)

O[C@@H]1[C@H](O)[C@@H]2C[C@@H]2[C@H]1n1cnc2c(NCCc3ccccc3)nc(C#Cc3ccccc3)nc21 [Cmpd 14]
% inhibition A1 (mA1AR): (39% ± 6%) | % inhibition A2A (mA2AAR): (13% ± 2%) | % efficacy (hA3AR): 4.1 ± 1.2% | % inhibition A1 (hA1AR [1]): (30% ± 8%) | % inhibition A2A (hA2AAR [2]): (22% ± 5%)

O[C@@H]1[C@H](O)[C@@H]2C[C@@H]2[C@H]1n1cnc2c(NCC(c3ccccc3)c3ccccc3)nc(C#Cc3ccccc3Cl)nc21 [Cmpd 15]
% inhibition A1 (mA1AR): (23% ± 1%) | % inhibition A2A (mA2AAR): (16% ± %) | % inhibition A3 (mA3AR [6]): (54 ± 3%) | % efficacy (hA3AR): 2.6 ± 1.3% | % inhibition A1 (hA1AR [1]): (26% ± 4%) | % inhibition A2A (hA2AAR [2]): (22% ± 2%)

O=S(=O)(O)c1ccc(CCNc2nc(C#Cc3ccccc3)nc3c2ncn3[C@H]2[C@H](O)[C@H](O)[C@@H]3C[C@@H]32)cc1 [Cmpd 16]
% inhibition A1 (hA1AR [5]): (10% ± 5%) | % inhibition A2A (hA2AAR [3]): (15% ± 3%) | % inhibition A1 (mA1AR): (18% ± 2%) | % inhibition A2A (mA2AAR): (1% ± 2%) | % efficacy (hA3AR): 7.2%

CNC(=O)C12CC1C(n1cnc3c(NCCc4ccccc4)nc(C#Cc4ccccc4)nc31)C(O)C2O (centres unmarked) [Cmpd 17]
% inhibition A1 (hA1AR [5]): (11% ± 3%) | % inhibition A2A (hA2AAR [3]): (32% ± 4%) | % inhibition A1 (mA1AR): (25% ± 5%) | % inhibition A2A (mA2AAR): (1% ± 1%) | % efficacy (hA3AR): 105.3 ± 9.8% | % efficacy (mA3AR [4]): 114.6 ± 14.6%

CNC(=O)[C@@]12C[C@@H]1[C@@H](n1cnc3c(NC)nc(C#Cc4ccc(Cl)s4)nc31)[C@H](O)[C@@H]2O [MRS5980]
ADP-dependent dissipation of mitochondrial membrane potential (ΔΨm) ([7]; 10 μM prior to ADP (1 mM)): lessened | Calcium-dependent dissipation of mitochondrial ΔΨm ([7]; 10 μM, Ca2+ 0.5-15 μM): sustained | ATP production following stimulation of Complex I and II ([8]; explants from oxaliplatin-treated rats, day 25): reverses oxaliplatin-induced deficiencies in ATP production | ATP production following stimulation of Complex I and II ([8]; explants from vehicle-treated rats): modestly enhanced ATP production

O=C1[O][Pt]2([NH][C@@H]3CCCC[C@H]3[NH]2)[O]C1=O [oxaliplatin, reference compound]
Mechano-hypersensitivity (Paw Withdrawal Threshold) [9]: produces mechano-hypersensitivity | Incidence of IENFs vs. Naive rats [10]: statistically significantly fewer IENFs
